As usually defined, the logP is a log measure of how a compound divides between an organic and an aqueous phase. A higher logP goes with higher lipophilicity.

A short description of data set [1]: logP by HPLC on reversed-phase column (EEC Directive 79/831 Annex V.A8). Type of data set: physicochemical. As to conditions: HPLC, reversed-phase C 18, 40° C., 0.1% aqueous formic acid and acetonitrile gradient. The procedure: In table 1, the logP values were determined in accordance with EEC Directive 79/831 Annex V.A8 by HPLC (High Performance Liquid Chromatography) on a reversed-phase column (C 18), using the method described below: Temperature: 40° C.; Mobile phases: 0.1% aqueous formic acid and acetonitrile; linear gradient from 10% acetonitrile to 90% acetonitrile. Calibration was carried out using unbranched alkan-2-ones (comprising 3 to 16 carbon atoms) with known logP values (determination of the logP values by the retention times using linear interpolation between two successive alkanones). lambda-max-values were determined using UV-spectra from 200 nm to 400 nm and the peak values of the chromatographic signals.

Another data set has as its system Alternaria solani. In words: Alternaria test (tomato)/preventive. Type of data set: in vivo. As to conditions: preventive, 500 ppm, evaluated 7 days after inoculation. As for the experimental part: The plants remain for one day in an incubation cabinet at approximately 22° C. and a relative atmospheric humidity of 100%. Then the plants are placed in an incubation cabinet at approximately 20° C. and a relative atmospheric humidity of 96%.

A further data set relates to Sphaerotheca fuliginea. The data set can be described thus: Sphaerotheca test (cucumber)/preventive. Type of data set: in vivo. As to conditions: preventive, 500 ppm, evaluated 7 days after inoculation. The procedure: Then the plants are placed in a greenhouse at approximately 23° C. and a relative atmospheric humidity of approximately 70%.
A further data set relates to Venturia inaequalis. The data set can be described thus: Venturia test (apples)/preventive. Type of data set: in vivo. As to conditions: preventive, 100 ppm, evaluated 10 days after inoculation. As for the experimental part: Venturia Test (Apples)/Preventive […] After the spray coating has dried on, the plants are inoculated with an aqueous conidia suspension of the causal agent of apple scab (Venturia inaequalis) and then remain for 1 day in an incubation cabinet at approximately 20° C. and a relative atmospheric humidity of 100%.

The next data set deals with Uromyces appendiculatus. The data set can be described thus: Uromyces test (beans)/preventive. As to conditions: preventive, 100 ppm, evaluated 10 days after inoculation. Type of data set: in vivo. An excerpt:
Uromyces Test (Beans)/Preventive

Another data set relates to Botrytis cinerea. In words: Botrytis test (beans)/preventive. Type of data set: in vivo. As to conditions: preventive, 100 ppm, lesion size 2 days after inoculation. The procedure: Botrytis Test (Beans)/Preventive
• Solvent: 24.5 parts by weight of acetone • 24.5 parts by weight of N,N-dimethylformamide • Emulsifier: 1 part by weight of alkylaryl polyglycol ether
After the spray coating has dried on, 2 small pieces of agar covered with growth of Botrytis cinerea are placed on each leaf. The inoculated plants are placed in a darkened chamber at 20° C. and a relative atmospheric humidity of 100%.
2 days after the inoculation, the size of the lesions on the leaves is evaluated.

Data set [2] concerns Blumeria graminis f.sp. hordei. In words: Blumeria test (barley)/preventive. Type of data set: in vivo. As to conditions: preventive, 500 ppm, evaluated 7 days after inoculation. The procedure: After the spray coating has been dried, the plants are dusted with spores of Blumeria graminis f.sp. hordei. The plants are placed in the greenhouse at a temperature of approximately 18° C. and a relative atmospheric humidity of approximately 80% to promote the development of mildew pustules.

Data set [3] relates to Fusarium nivale (var. majus). The data set can be described thus: Fusarium nivale (var. majus)-test (wheat)/preventive. Type of data set: in vivo. As to conditions: preventive; for Efficacy: evaluated 5 days after inoculation. As for the experimental part: After the spray coating has been dried, the plants are slightly injured by using a sandblast and afterwards they are sprayed with a conidia suspension of Fusarium nivale (var. majus). The plants are placed in the greenhouse under a translucent incubation cabinet at a temperature of approximately 10° C. and a relative atmospheric humidity of approximately 100%.

A further data set deals with Puccinia recondita. In words: Puccinia test (wheat)/preventive. Type of data set: in vivo. As to conditions: preventive, 500 ppm, evaluated 7-9 days after inoculation. As for the experimental part:
(§1) The plants remain for 48 hours in an incubation cabinet at 22° C. and a relative atmospheric humidity of 100%. Then the plants are placed in a greenhouse at a temperature of approximately 20° C. and a relative atmospheric humidity of approximately 80%.

For the next data set, the system named is Pyrenophora teres. In words: Pyrenophora test (barley)/preventive. Type of data set: in vivo. As to conditions: preventive, 500 ppm, evaluated 7-9 days after inoculation. As for the experimental part: as §1
The subject of another data set is Pyricularia oryzae. Type of data set: in vivo. As to conditions: rice, protective, 250 ppm, evaluated 5 days after inoculation.
The next data set concerns Rhizoctonia solani. In words: Rhizoctonia test (rice)/protective. Type of data set: in vivo. As to conditions: protective, 250 ppm, evaluated 4 days after inoculation. An excerpt:
Rhizoctonia Test (Rice)/Protective

The test system of the next data set is Phakopsora pachyrhizi. In words: Phakopsora test (soybeans)/protective. Type of data set: in vivo. As to conditions: protective, 250 ppm, evaluated 11 days after inoculation. An excerpt: Phakopsora Test (Soybeans)/Protective
For the next data set, the system named is Cochliobolus miyabeanus. In words: Cochliobolus test (rice)/protective. As to conditions: protective, 250 ppm, evaluated 4 days after inoculation.

Procedure for Cochliobolus miyabeanus: • Solvent: 28.5 parts by weight of acetone • Emulsifier: 1.5 part by weight of alkylaryl polyglycol ether
1 day after the treatment, the plants are inoculated with an aqueous spore suspension of Cochliobolus miyabeanus. The plants are then placed in a greenhouse at a relative atmospheric humidity of 100% and a temperature of 25° C.
Evaluation is carried out 4 days after the inoculation.

The compound `CC(C)CC(C)c1sccc1NC(=O)c1c(C(F)F)nn(C)c1Cl` (stereo not shown) [Example 3] showed a logP in [1] of 4.19. In addition, the Efficacy in the data set with Alternaria solani came to 100%; in the data set on Sphaerotheca fuliginea, 96%; in the data set with Venturia inaequalis it was 100%; in the data set with Uromyces appendiculatus, 100%; with Botrytis cinerea, 98%; in data set [2] it was 100%. Also, the Efficacy was found to be 86% in data set [3] (250 ppm); 100% in data set [3] (500 ppm); 100% with Puccinia recondita; 100% with Pyrenophora teres; 97% in the data set with Pyricularia oryzae; 100% in the data set on Rhizoctonia solani. The Efficacy turned out to be 98% in the data set with Phakopsora pachyrhizi and 97% with Cochliobolus miyabeanus. Further, the protection result in [3] (dose of 250 ppm and 500 ppm (text summary of table G2)) was “at least 80%”.
`CC(C)CC(C)c1sccc1NC(=O)c1c(C(F)F)nn(C)c1F` (stereo not shown) [Example 4] had a log partition coefficient (logP) in data set [1] of 3.94. Moreover, the Efficacy is recorded as 100% with Alternaria solani; 100% with Sphaerotheca fuliginea; 100% in the data set with Venturia inaequalis; 100% in the data set with Uromyces appendiculatus; 97% in the data set on Botrytis cinerea; 100% in data set [2]. The Efficacy in the data set with Puccinia recondita stood at 100%; in the data set with Pyrenophora teres, 100%; with Phakopsora pachyrhizi it was 99%.
Regarding `Cn1nc(C(F)F)c(C(=O)Nc2ccsc2CC[Si](C)(C)C)c1Cl` [Example 18], the logP in [1] is 4.30. In addition, the Efficacy with Alternaria solani came to 80%; with Sphaerotheca fuliginea, 98%; with Venturia inaequalis, 94%; in the data set with Uromyces appendiculatus, 100%; in the data set with Botrytis cinerea, 91%; in data set [2], 92%. For the same compound, the Efficacy (in [3] (500 ppm); in the data set on Puccinia recondita; in the data set on Pyrenophora teres) was 100% in each case.
`Cn1nc(C(F)F)c(C(=O)Nc2ccsc2CC[Si](C)(C)C)c1F` [Example 19] showed a logP in [1] of 4.06. The Efficacy came to 90% in the data set with Alternaria solani; 100% in the data set on Sphaerotheca fuliginea; 99% with Venturia inaequalis; 100% with Uromyces appendiculatus; 100% in the data set on Botrytis cinerea; 100% in data set [2]. Moreover, the Efficacy (in [3] (500 ppm); with Puccinia recondita; with Pyrenophora teres) was 100% throughout.

The values above are taken from patent US20130231303A1, “5-HALOGENOPYRAZOLE(THIO)CARBOXAMIDES” (Bayer Intellectual Property GmbH, priority 2010, published 2013).
